The record followed here is patent US8044079B2, “Substituted oxindole derivatives, medicaments containing said derivatives and use thereof” (Abbott GmbH & Co. KG, priority 2005, dated 2011).

This experiment concerns the target T1, human vasopressin V1b receptor (Homo sapiens, UniProt P47901).
T1 construct: expressed in transfected cells; host or cells: CHO-K1 (cell line hV1b_3H2_CHO), membrane preparation
T1 sequence (P47901 1-424): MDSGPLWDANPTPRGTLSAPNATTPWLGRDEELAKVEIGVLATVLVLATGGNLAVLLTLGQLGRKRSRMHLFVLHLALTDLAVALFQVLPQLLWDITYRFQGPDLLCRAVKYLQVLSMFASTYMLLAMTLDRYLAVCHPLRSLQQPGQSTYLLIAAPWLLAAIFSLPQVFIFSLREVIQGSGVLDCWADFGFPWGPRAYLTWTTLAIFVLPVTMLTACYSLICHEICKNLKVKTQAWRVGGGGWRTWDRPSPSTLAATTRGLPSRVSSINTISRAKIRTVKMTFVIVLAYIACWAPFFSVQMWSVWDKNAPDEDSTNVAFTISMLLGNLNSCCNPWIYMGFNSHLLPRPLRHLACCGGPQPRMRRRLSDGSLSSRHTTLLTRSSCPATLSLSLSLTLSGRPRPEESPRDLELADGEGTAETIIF
Briefly: Vasopressin V1b receptor binding test. As to conditions: membranes of CHO-K1 cells with human V1b receptor, displacement of 1.5 nM 3H-AVP; for compounds with more than one stereogenic center the diastereomer with greater affinity. In short, it runs like this: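 Radioligand displacement on membranes carrying human V1b receptor in 50 mM tris, 10 mM MgCl2, 0.1% BSA, pH 7.4, 2% DMSO final; 60 min at room temperature, nonspecific binding with 1 μM AVP. Free ligand removed by filtration, bound counted by liquid scintillation, Ki from nonlinear regression of triplicates.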

The term Ki denotes the equilibrium dissociation constant of an inhibitor or competing ligand from its target. Consider `COc1ccc(S(=O)(=O)N2C(=O)C(c3cc(CN4CCCN(C)CC4)ccc3OC)(N3CCC[C@H]3c3ncco3)c3cc(C#N)ccc32)cc1` (stereo partly drawn) [Example 144, 5-Cyano-1-(4-methoxybenzenesulfonyl)-3-[2-methoxy-5-(4-methyl-[1,4]diazepan-1-ylmethyl)phenyl]-3-((S)-2-oxazol-2-yl-pyrrolidin-1-yl)-1,3-dihydroindol-2-one], for which the Ki is < 10 nM.
For `COc1ccc(CN2CCN(C)CC2)cc1C1(N2CCC[C@H]2c2ncco2)C(=O)N(S(=O)(=O)c2ccc(OC(F)F)cc2)c2ccc(Cl)cc21` (stereo partly drawn) [Example 145, 5-Chloro-1-(4-difluoromethoxybenzenesulfonyl)-3-[2-methoxy-5-(4-methylpiperazin-1-ylmethyl)phenyl]-3-((S)-2-oxazol-2-yl-pyrrolidin-1-yl)-1,3-dihydroindol-2-one] the value was 10 to 100 nM; for `COc1ccc(S(=O)(=O)N2C(=O)C(c3ccc(CN4CCOCC4)cc3OC)(N3CCC[C@H]3c3ncco3)c3cc(Cl)ccc32)cc1` (stereo partly drawn) [Example 146, 5-Chloro-1-(4-methoxybenzenesulfonyl)-3-(2-methoxy-4-(morpholin-4-ylmethyl)phenyl)-3-((S)-2-oxazol-2-yl-pyrrolidin-1-yl)-1,3-dihydroindol-2-one], 10 to 100 nM; for `COc1ccc(S(=O)(=O)N2C(=O)C(c3ccc(CN4CCN(CCO)CC4)cc3OC)(N3CCC[C@H]3c3ncco3)c3cc(C#N)ccc32)cc1` (stereo partly drawn) [Example 147, 5-Cyano-3-{4-[4-(2-hydroxyethyl)piperazin-1-ylmethyl]-2-methoxyphenyl}-1-(4-methoxybenzenesulfonyl)-3-((S)-2-oxazol-2-yl-pyrrolidin-1-yl)-1,3-dihydroindol-2-one], < 10 nM.
In the case of `CCN1CCN(Cc2ccc(C3(N4CCC[C@H]4c4ncco4)C(=O)N(S(=O)(=O)c4ccc(OC)cc4)c4ccc(C#N)cc43)c(OC)c2)CC1` (stereo partly drawn) [Example 148, 5-Cyano-3-[4-(4-ethylpiperazin-1-ylmethyl)-2-methoxyphenyl]-1-(4-methoxybenzenesulfonyl)-3-((S)-2-oxazol-2-yl-pyrrolidin-1-yl)-1,3-dihydroindol-2-one], the Ki is < 10 nM.
As for `COc1ccc(S(=O)(=O)N2C(=O)C(c3cc(CN(C)C)ccc3OC)(N3C[C@H](O)C[C@H]3c3ncco3)c3cc(C#N)ccc32)cc1` (stereo partly drawn) [Example 150, 5-Cyano-3-(5-dimethylaminomethyl-2-methoxyphenyl)-3-((2S,4R)-4-hydroxy-2-oxazol-2-yl-pyrrolidin-1-yl)-1-(4-methoxybenzenesulfonyl)-1,3-dihydroindol-2-one], the Ki is < 10 nM.
In the case of `CCNCc1ccc(OC)c(C2(N3C[C@H](O)C[C@H]3c3ncco3)C(=O)N(S(=O)(=O)c3ccc(OC)cc3)c3ccc(C#N)cc32)c1` (stereo partly drawn) [Example 151, 5-Cyano-3-(5-ethylaminomethyl-2-methoxyphenyl)-3-((2S,4R)-4-hydroxy-2-oxazol-2-yl-pyrrolidin-1-yl)-1-(4-methoxybenzenesulfonyl)-1,3-dihydroindol-2-one], the Ki was < 10 nM.
The figure for `CCN1CCN(Cc2ccc(C3(N4CCC[C@H]4c4ncco4)C(=O)N(S(=O)(=O)c4ccc(C#N)cc4)c4ccc(Cl)cc43)c(OC)c2)CC1` (stereo partly drawn) [Example 152, 5-Chloro-3-[4-(4-ethylpiperazin-1-ylmethyl)-2-methoxyphenyl]-3-((S)-2-oxazol-2-yl-pyrrolidin-1-yl)-1-(4-cyanobenzenesulfonyl)-1,3-dihydroindol-2-one] is < 10 nM; for `COc1ccc(S(=O)(=O)N2C(=O)C(c3ccc(CN4CCNCC4)cc3OC)(N3CCC[C@H]3c3ncco3)c3cc(C#N)ccc32)cc1` (stereo partly drawn) [Example 153, 5-Cyano-1-(4-methoxybenzenesulfonyl)-3-(2-methoxy-4-piperazin-1-ylmethylphenyl)-3-((S)-2-oxazol-2-yl-pyrrolidin-1-yl)-1,3-dihydroindol-2-one] it is < 10 nM; for `COc1ccc(S(=O)(=O)N2C(=O)C(c3ccc(CNCCO)cc3OC)(N3CCC[C@H]3c3ncco3)c3cc(C#N)ccc32)cc1` (stereo partly drawn) [Example 154, 5-Cyano-3-{4-[(2-hydroxyethylamino)methyl]-2-methoxyphenyl}-1-(4-methoxybenzenesulfonyl)-3-((S)-2-oxazol-2-yl-pyrrolidin-1-yl)-1,3-dihydroindol-2-one] it is < 10 nM.
For `CNCc1ccc(OC)c(C2(N3CCCC3c3nccs3)C(=O)N(S(=O)(=O)c3ccc(OC)cc3)c3ccc(Cl)cc32)c1` (stereo not drawn) [Example 155, 5-Chloro-1-(4-methoxybenzenesulfonyl)-3-(2-methoxy-5-methylaminomethylphenyl)-3-(2-thiazol-2-yl-pyrrolidin-1-yl)-1,3-dihydroindol-2-one], the Ki was < 10 nM.
As for `COc1cc(CN(C)C)ccc1C1(N2CCC[C@H]2c2ncco2)C(=O)N(S(=O)(=O)c2ccc(C#N)cc2)c2ccc(Cl)cc21` (stereo partly drawn) [Example 156, 5-Chloro-3-(4-dimethylaminomethyl-2-methoxyphenyl)-3-((S)-2-oxazol-2-yl-pyrrolidin-1-yl)-1-(4-cyanobenzenesulfonyl)-1,3-dihydroindol-2-one], the inhibitory constant (Ki) was in the range of 10 to 100 nM.
The compound `COc1cc(CN2CCCC2)ccc1C1(N2CCC[C@H]2c2ncco2)C(=O)N(S(=O)(=O)c2ccc(C#N)cc2)c2ccc(Cl)cc21` (stereo partly drawn) [Example 157, 5-Chloro-3-(2-methoxy-4-pyrrolidin-1-ylmethylphenyl)-3-((S)-2-oxazol-2-yl-pyrrolidin-1-yl)-1-(4-cyanobenzenesulfonyl)-1,3-dihydroindol-2-one] registered a Ki of 10 to 100 nM.
The figure for `COc1cc(CN2CCN(C)CC2)ccc1C1(N2CCC[C@H]2c2ncco2)C(=O)N(S(=O)(=O)c2ccc(C#N)cc2)c2ccc(Cl)cc21` (stereo partly drawn) [Example 158, 5-Chloro-3-[2-methoxy-4-(4-methylpiperazin-1-ylmethyl)phenyl]-3-((S)-2-oxazol-2-yl-pyrrolidin-1-yl)-1-(4-cyanobenzenesulfonyl)-1,3-dihydroindol-2-one] is < 10 nM; for `CCCNCc1ccc(C2(N3CCC[C@H]3c3ncco3)C(=O)N(S(=O)(=O)c3ccc(C#N)cc3)c3ccc(Cl)cc32)c(OC)c1` (stereo partly drawn) [Example 159, 5-Chloro-3-(2-methoxy-4-propylaminomethylphenyl)-3-((S)-2-oxazol-2-yl-pyrrolidin-1-yl)-1-(4-cyanobenzenesulfonyl)-1,3-dihydroindol-2-one] it is 10 to 100 nM.
The figure for `COc1ccc(S(=O)(=O)N2C(=O)C(c3cc(CN4CCNCC4)ccc3OC)(N3C[C@H](O)C[C@H]3c3ncco3)c3cc(C#N)ccc32)cc1` (stereo partly drawn) [Example 160, 5-Cyano-3-((2S,4R)-4-hydroxy-2-oxazol-2-yl-pyrrolidin-1-yl)-1-(4-methoxybenzenesulfonyl)-3-(2-methoxy-5-piperazin-1-ylmethylphenyl)-1,3-dihydroindol-2-one] is < 10 nM; for `C=CCNCc1ccc(OC)c(C2(N3CCC[C@H]3c3ncco3)C(=O)N(S(=O)(=O)c3ccc(OC)cc3)c3ccc(Cl)cc32)c1` (stereo partly drawn) [Example 161, 5-Chloro-3-(5-allylaminomethyl-2-methoxyphenyl)-1-(4-methoxybenzenesulfonyl)-3-((S)-2-oxazol-2-yl-pyrrolidin-1-yl)-1,3-dihydroindol-2-one] it is < 10 nM.
For the compound `COc1cc(CN2CCNCC2)ccc1C1(N2CCC[C@H]2c2ncco2)C(=O)N(S(=O)(=O)c2ccc(C#N)cc2)c2ccc(Cl)cc21` (stereo partly drawn) [Example 162, 5-Chloro-3-(2-methoxy-4-piperazin-1-ylmethylphenyl)-3-((S)-2-oxazol-2-yl-pyrrolidin-1-yl)-1-(4-cyanobenzenesulfonyl)-1,3-dihydroindol-2-one], the Ki was < 10 nM.
